Residues, ends and D or L forms follow the SMILES beside them. No end group written: not given here. *: point of attachment. FITC = O=C1OC2(c3ccc(O)cc3Oc3cc(O)ccc32)c2ccc(NC(=S)*)cc21
B1: Phage clone C7 (peptide)
peptide: MHTAPGWGYRLS
notes: dodecapeptide selected by phage display; printed in three-letter code; the synthetic FITC peptide is m18; also called C7 phage clone; source: M13 phage clone from the Ph.D.-12 library, amplified in E. coli ER2738; purified phage for flow cytometry
B2: Phage clone B8/H1/G4 (peptide)
peptide: GALLPSMNKGHW
notes: dodecapeptide selected by phage display; printed in three-letter code; source: M13 phage clone from the Ph.D.-12 library, amplified in E. coli ER2738; purified phage for flow cytometry
B3: FITC conjugated peptide C7 (peptide)
peptide: {FITC}-MHTAPGWGYRLS
notes: dodecapeptide of phage clone C7, chemically synthesized; printed in three-letter code; also called C7 peptide; synthesized peptide C7; source: synthetic peptide (GL Biochem, Shanghai; HPLC, more than 95% purity)
B4: Phage clone G8 (peptide)
peptide: YTNPYYSSHTRN
notes: as for B2
B5: Phage clone G12 (peptide)
peptide: MNPYPRTPWPHV
notes: as for B2

Columns and labels:
SKOV3 xenograft tumor = assay: Tumor targeting of FITC conjugated synthetic peptide by fluorescence imaging; format: in vivo, nude mouse; conditions: 200 μL of 10 mg/mL in PBS i.v., 2 h circulation, liver, lung, kidney, heart, ovary
Procedure: FITC conjugated peptide C7 was chemically synthesized by GL Biochem (Shanghai, China) and purified by high-performance liquid chromatography with more than 95% purity and confirmed by mass spectrometry. The FITC conjugated peptide was evaluated in tumor bearing mice for its tumor targeting capability. The peptide was dissolved in PBS at a concentration of 10 mg/mL and 200 μL was injected intravenously into a tumor bearing nude mouse. After 2 h circulation, tumor and other organ tissues (liver, lung, kidney, heart, and ovary) were harvested and analyzed using Carestream IS4000 fluorescence imaging system.

SKOV3 cells [1] = assay: Cell internalization by confocal microscopy, SKOV3 cells; format: cell-based, human; conditions: FITC conjugated peptide 200 μg/mL, 4 hours at 37 °C
Procedure: To visualize internalization of synthesized peptide C7 into cells, SKOV3 or HepG2 cells were seeded in 24 well plates (10^5 cells/well) containing coverslips and incubated for 24 hours in RPMI 1640 medium with 10% FBS. FITC conjugated peptide C7 or PB-TUP[24] (VHWDFRQWWQPS) (200 μg/mL) was incubated with the cells for 4 hours at 37 °C. After incubation, the cells were washed once with PBS and fixed in 4% paraformaldehyde for 10 min. Cells were then washed three times with PBS and stained with DAPI for 20 min at room temperature. Internalized fluorescent signals were imaged with a Zeiss LSM800 confocal microscope.

SKOV3 cells [2] = assay: Cell-based ELISA of phage clones on SKOV3 cells; set-up: species or system human; conditions: FRα positive cells, fixed; 10^10 phages per well, 37 °C 2 h, HRP anti-M13
Text: (§1) Phage clones with high ELISA value were further tested by cell-based ELISA. SKOV3 (human epithelial ovarian cancer cell) is a FRα expressing cell line and was used to evaluate the binding of selected phage clones to natural FRα protein on cell surface. HEPG2 (Human Liver Carcinoma Cell) without FRα expressing was used as a negative control. Both cell lines were purchased from Shanghai Cell Biology Institutes (Academia Sinica, Shanghai, China) and maintained in RPMI 1640 Medium with 10% fetal bovine serum and antibiotics. The presence or absence of FRα expression of the two cell lines were confirmed by flow cytometry described in 2.4. The cells were cultured in 96-well plate to 80% confluence and fixed with 4% paraformaldehyde. After blocking with 3% BSA for 2 h, 10^10 individual phages were added to each well and incubated at 37 °C for 2 h. Then the plate was washed with PBST for three times and cell-bound phage was detected with HRP-conjugated anti-M13 IgG (1:10000) as described in phage ELISA.

HepG2 cells = assay: Cell-based ELISA of phage clones on HepG2 cells; set-up: species or system human; conditions: FRα negative cells, fixed; 10^10 phages per well, 37 °C 2 h, HRP anti-M13
Text: as §1

SKOV3 cells [3] = assay: Flow cytometry of phage clone binding to SKOV3 cells; format: cell-based, human; conditions: 4 °C 1 h, mouse anti-M13 and FITC goat anti-mouse antibody
Procedure: SKOV3 cells were collected and suspended in 2% FCS-PBS medium at 1 × 10^6 cells/mL. Purified phage clones were incubated individually with the cells at 4 °C for 1 h. The cells were washed twice with 2% FCS-PBS by 5 min centrifugation at 300 g. Mouse anti-M13 antibody was diluted with 2% FCS-PBS (1:400) and incubated with cells for 30 min at 4 °C. After washing, the cells were stained for 30 min at 4 °C with FITC conjugated goat anti-mouse antibody (Fcmacs, Inc., Nanjing). Cells were analyzed as described above.

SKOV3 implanted tumor = assay: In vivo homing of phage clones in SKOV3 xenografts; set-up: species or system Balb/c nude mice; conditions: 2 × 10^11 phages i.v., circulated 15 min, phage titration per gram of tissue, n = 3
Procedure: Female Balb/c nude mice aged 6–8 weeks were purchased from the Yangzhou University Animal Center. All the animal studies were performed in compliance with the National Institutes of Health Guide for the Care and Use of Laboratory Animals and approved by IACUC (Institutional Animal Care and Use Committee of China Pharmaceutical University). The authors confirm that experiments involving laboratory animals adhered to the ethical standards of National Institutes of Health Guide and China Pharmaceutical University. The laboratory animals were used under the experimental animal production license 2121922. All animals were housed in a controlled environment (25 °C; 12 h light-dark cycle), with water and food provided freely. 2 × 10^6 SKOV3 cells were subcutaneously injected into the left flank of mice to generate epithelial ovarian cancer xenografts. 2 × 10^11 individual purified phage clones were injected intravenously and circulated for 15 min. After anesthetized with 10 mg/kg […] (5% w/v), the mice were perfused through the heart. Then, the tumor and main organs (liver, lung, kidney, heart and ovary) were harvested, weighed and homogenated. The homogenated tissues were washed, and lysed with 1% NP40. Bound phages were recovered by elution and titrated as described. The distribution of phages was calculated as phages per gram.

[4] = molecular target: T1, Native human folate receptor alpha (FRα) on SKOV3 cells (human (endogenous in SKOV3), UniProt P15328 25-234); assay: flow cytometry on cells; purified phage clones incubated with SKOV3 cells (1 × 10^6 cells/mL, 2% FCS-PBS) at 4 °C for 1 h; mouse anti-M13 antibody and FITC goat anti-mouse antibody; M13KE as negative control; conditions: one partner purified
T1 construct: folate receptor alpha, endogenous on the surface of SKOV3 human epithelial ovarian cancer cells; also called natural FRα protein on cell surface; source: endogenous, on SKOV3 cells

[5] = molecular target: T2, Recombinant human folate receptor alpha (FRα) (human, UniProt P15328 25-234); assay: MST; serial dilutions of FITC conjugated C7 in PBS pH 7.4 mixed with purified FRα protein (1 μg/mL), 5 min at room temperature; Monolith NT.115, standard capillaries; KD from the Hill formula; conditions: both partners purified
T2 construct: folate receptor alpha, human; also called recombinant folate receptor α; purified FRα protein; source: E. coli system, purified with a Ni-column
T2 sequence (P15328 25-234): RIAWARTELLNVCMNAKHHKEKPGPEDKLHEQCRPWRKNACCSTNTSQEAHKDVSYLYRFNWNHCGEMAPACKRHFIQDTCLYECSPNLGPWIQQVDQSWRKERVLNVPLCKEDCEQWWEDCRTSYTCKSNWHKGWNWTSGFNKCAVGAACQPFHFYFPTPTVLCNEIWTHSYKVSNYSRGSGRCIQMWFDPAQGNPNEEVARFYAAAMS

T1 sequence (P15328 25-234): as above

Molecule | binding to SKOV3 cells in cell-based ELISA (SKOV3 cells [2]) | binding to HepG2 cells in cell-based ELISA (HepG2 cells) | specific binding to SKOV3 cells (FITC+ cells) (SKOV3 cells [3]) | percent specific binding to SKOV3 cells [4] | also measured
CSCC[C@H](NC(=S)Nc1ccc2c(c1)C(=O)OC21c2ccc(O)cc2Oc2cc(O)ccc21)C(=O)N[C@@H](Cc1c[nH]cn1)C(=O)N[C@H](C(=O)N[C@@H](C)C(=O)N1CCC[C@H]1C(=O)NCC(=O)N[C@@H](Cc1c[nH]c2ccccc12)C(=O)NCC(=O)N[C@@H](Cc1ccc(O)cc1)C(=O)N[C@@H](CCCNC(=N)N)C(=O)N[C@@H](CC(C)C)C(=O)N[C@@H](CO)C(=O)O)[C@@H](C)O [C7, Met-His-Thr-Ala-Pro-Gly-Trp-Gly-Tyr-Arg-Leu-Ser] ({FITC}-MHTAPGWGYRLS-OH; N-terminus and C-terminus assumed) | – | – | – | – | fluorescence signal in the tumor compared with other organs (SKOV3 xenograft tumor): significantly stronger compared to that in other organs except liver and kidney; internalization into SKOV3 cells (SKOV3 cells [1]): can be internalized
GALLPSMNKGHW [phage clone B8, phage clone displaying Gly-Ala-Leu-Leu-Pro-Ser-Met-Asn-Lys-Gly-His-Trp] | highest binding | relatively low binding | – | – | –
MHTAPGWGYRLS [phage clone C7, phage clone from Ph.D.-12 library displaying the C7 dodecapeptide] | highest binding | relatively low binding | 51.2% | – | phage enrichment in tumor tissue relative to M13KE phage in tumor (SKOV3 implanted tumor): 49 fold; phage titer in tumor relative to normal ovary (SKOV3 implanted tumor): 190 fold
MNPYPRTPWPHV [phage clone G12, phage clone displaying Met-Asn-Pro-Tyr-Pro-Arg-Thr-Pro-Trp-Pro-His-Val] | highest binding | relatively low binding | 41.8% | – | –
YTNPYYSSHTRN [phage clone G8, phage clone displaying Tyr-Thr-Asn-Pro-Tyr-Tyr-Ser-Ser-His-Thr-Arg-Asn] | highest binding | relatively low binding | 36.0% | – | –
B1 | – | – | – | 51.2% | –
B2 | – | – | – | 31.8% | –
B3 | – | – | – | – | Kd [5]: 300 nM
B4 | – | – | – | 36% | –
B5 | – | – | – | 41.8% | –

Reference: PMC5976665, “Identification of a peptide for folate receptor alpha by phage display and its tumor targeting activity in ovary cancer xenograft” (Scientific Reports, 2018)
